Experimental data: patent US20240199649A1 (Biosplice Therapeutics, Inc., priority 2022, published 2024)

biological target: recombinant DYRK1A kinase (Homo sapiens (Human), UniProt Q13627); test: DYRK1A kinase assay (Ser/Thr 18 peptide Z-lyte FRET assay); format: biochemical; conditions: DYRK1A 0.25 μg/mL, ATP 15 μM, Ser/Thr peptide 18 4 μM; one hour at room temperature; 11-point dose-response, duplicate
Summary of the method: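 Z-lyte FRET assay on Ser/Thr 18 peptide, kinase activity read as coumarin/fluorescein emission ratio; compounds incubated 1 h at room temperature, then development reagent 1 h, in duplicate. Phosphorylated and unphosphorylated peptide served as controls; IC50 by non-linear regression of dose-response curves.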

IC50 [nM] | Structure (SMILES)
1.4 | CNc1nc(N[C@@H]2CCN(C)CC2(F)F)nn2ccc(-c3ccc4ncn(CC(F)F)c4n3)c12 [Compound 1011, (R)—N^2-(3,3-Difluoro-1-methylpiperidin-4-yl)-5-(3-(2,2-difluoroethyl)-3H-imidazo[4,5-b]pyridin-5-yl)-N^4-methylpyrrolo[2,1-f][1,2,4]triazine-2,4-diamine]
0.5 | CNc1nc(N[C@H]2CCN(C(C)=O)C[C@H]2F)nn2ccc(-c3ccc4ncn(CC(F)F)c4n3)c12 [Compound 1012, 1-((3R,4S)-4-((5-(3-(2,2-Difluoroethyl)-3H-imidazo[4,5-b]pyridin-5-yl)-4-(methylamino)pyrrolo[2,1-f][1,2,4]triazin-2-yl)amino)-3-fluoropiperidin-1-yl)ethan-1-one]
0.9 | CNc1nc(N[C@@H]2CCN(C3COC3)CC2(F)F)nn2ccc(-c3ccc4ncn(CC(F)F)c4n3)c12 [Compound 1013, (R)—N^2-(3,3-Difluoro-1-(oxetan-3-yl)piperidin-4-yl)-5-(3-(2,2-difluoroethyl)-3H-imidazo[4,5-b]pyridin-5-yl)-N4-methylpyrrolo[2,1-f][1,2,4]triazine-2,4-diamine]
10.1 | CNc1nc(NC2CCC(F)(F)CC2)nn2ccc(-c3ccc4ncn(CC(F)(F)F)c4n3)c12 [Compound 1014, N^2-(4,4-Difluorocyclohexyl)-N^4-methyl-5-(3-(2,2,2-trifluoroethyl)-3H-imidazo[4,5-b]pyridin-5-yl)pyrrolo[2,1-f][1,2,4]triazine-2,4-diamine]
1.4 | CNc1nc(N[C@H]2CCN(C(C)=O)C[C@H]2F)nn2ccc(-c3ccc4ncn(CC(F)(F)F)c4n3)c12 [Compound 1015, 1-((3R,4S)-3-Fluoro-4-((4-(methylamino)-5-(3-(2,2,2-trifluoroethyl)-3H-imidazo[4,5-b]pyridin-5-yl)pyrrolo[2,1-f][1,2,4]triazin-2-yl)amino)piperidin-1-yl)ethan-1-one]
1.5 | CNc1nc(N[C@H]2CCN(C3COC3)C[C@H]2F)nn2ccc(-c3ccc4ncn(CC(F)(F)F)c4n3)c12 [Compound 1016, N^2-((3R,4S)-3-Fluoro-1-(oxetan-3-yl)piperidin-4-yl)-N^4-methyl-5-(3-(2,2,2-trifluoroethyl)-3H-imidazo[4,5-b]pyridin-5-yl)pyrrolo[2,1-f][1,2,4]triazine-2,4-diamine]
1.7 | CNc1nc(N[C@@H]2CCN(C)CC2(F)F)nn2ccc(-c3ccc4ncn(CC(F)(F)F)c4n3)c12 [Compound 1017, (R)—N^2-(3,3-Difluoro-1-methylpiperidin-4-yl)-N^4-methyl-5-(3-(2,2,2-trifluoroethyl)-3H-imidazo[4,5-b]pyridin-5-yl)pyrrolo[2,1-f][1,2,4]triazine-2,4-diamine]
1.6 | CNc1nc(N[C@@H]2CCN(C(C)=O)CC2(F)F)nn2ccc(-c3ccc4ncn(CC(F)(F)F)c4n3)c12 [Compound 1018, (R)-1-(3,3-Difluoro-4-((4-(methylamino)-5-(3-(2,2,2-trifluoroethyl)-3H-imidazo[4,5-b]pyridin-5-yl)pyrrolo[2,1-f][1,2,4]triazin-2-yl)amino)piperidin-1-yl)ethan-1-one]
1.7 | CNc1nc(N[C@@H]2CCN(C3COC3)CC2(F)F)nn2ccc(-c3ccc4ncn(CC(F)(F)F)c4n3)c12 [Compound 1019, (R)—N^2-(3,3-Difluoro-1-(oxetan-3-yl)piperidin-4-yl)-N^4-methyl-5-(3-(2,2,2-trifluoroethyl)-3H-imidazo[4,5-b]pyridin-5-yl)pyrrolo[2,1-f][1,2,4]triazine-2,4-diamine]
2.1 | CNc1nc(N[C@H]2CCN(C(C)=O)C[C@H]2F)nn2ccc(-c3ccc4nc(C)n(CCF)c4n3)c12 [Compound 1020, 1-((3R,4S)-3-Fluoro-4-((5-(3-(2-fluoroethyl)-2-methyl-3H-imidazo[4,5-b]pyridin-5-yl)-4-(methylamino)pyrrolo[2,1-f][1,2,4]triazin-2-yl)amino)piperidin-1-yl)ethan-1-one]
1.3 | CNc1nc(N[C@@H]2CCN(C(C)=O)CC2(F)F)nn2ccc(-c3ccc4nc(C)n(CCF)c4n3)c12 [Compound 1021, (R)-1-(3,3-Difluoro-4-((5-(3-(2-fluoroethyl)-2-methyl-3H-imidazo[4,5-b]pyridin-5-yl)-4-(methylamino)pyrrolo[2,1-f][1,2,4]triazin-2-yl)amino)piperidin-1-yl)ethan-1-one]
0.4 | CNc1nc(N[C@H]2CCN(C(C)=O)C[C@H]2F)nn2ccc(-c3ccc4nc(C)n(CC(F)F)c4n3)c12 [Compound 1022, 1-((3R,4S)-4-((5-(3-(2,2-Difluoroethyl)-2-methyl-3H-imidazo[4,5-b]pyridin-5-yl)-4-(methylamino)pyrrolo[2,1-f][1,2,4]triazin-2-yl)amino)-3-fluoropiperidin-1-yl)ethan-1-one]
4.7 | CNc1nc(N[C@@H]2CCN(C(C)=O)CC2(F)F)nn2ccc(-c3ccc4nc(C)n(CC(F)F)c4n3)c12 [Compound 1023, (R)-1-(4-((5-(3-(2,2-Difluoroethyl)-2-methyl-3H-imidazo[4,5-b]pyridin-5-yl)-4-(methylamino)pyrrolo[2,1-f][1,2,4]triazin-2-yl)amino)-3,3-difluoropiperidin-1-yl)ethan-1-one]
1 | CNc1nc(N[C@@H]2CCN(C(C)=O)CC2(F)F)nn2ccc(-c3ccc4nc(C)n(CC(F)(F)F)c4n3)c12 [Compound 1024, (R)-1-(3,3-Difluoro-4-((5-(2-methyl-3-(2,2,2-trifluoroethyl)-3H-imidazo[4,5-b]pyridin-5-yl)-4-(methylamino)pyrrolo[2,1-f][1,2,4]triazin-2-yl)amino)piperidin-1-yl)ethan-1-one]
10.1 | CNc1nc(NC2CCC(F)(F)CC2)nn2ccc(-c3ccc4nnn(CC(F)F)c4n3)c12 [Compound 1025, N^2-(4,4-Difluorocyclohexyl)-5-(3-(2,2-difluoroethyl)-3H-[1,2,3]triazolo[4,5-b]pyridin-5-yl)-N^4-methylpyrrolo[2,1-f][1,2,4]triazine-2,4-diamine]
0.3 | CNc1nc(N[C@@H]2CN(C(C)=O)C[C@@H]2F)nn2ccc(-c3ccc4nnn(CC(F)F)c4n3)c12 [Compound 1026, 1-((3R,4S)-3-((5-(3-(2,2-Difluoroethyl)-3H-[1,2,3]triazolo[4,5-b]pyridin-5-yl)-4-(methylamino)pyrrolo[2,1-f][1,2,4]triazin-2-yl)amino)-4-fluoropyrrolidin-1-yl)ethan-1-one]
0.6 | CNc1nc(N[C@@H]2CN(C)CC2(F)F)nn2ccc(-c3ccc4nnn(CC(F)F)c4n3)c12 [Compound 1027, (R)—N^2-(4,4-Difluoro-1-methylpyrrolidin-3-yl)-5-(3-(2,2-difluoroethyl)-3H-[1,2,3]triazolo[4,5-b]pyridin-5-yl)-N^4-methylpyrrolo[2,1-f][1,2,4]triazine-2,4-diamine]
1.3 | CNc1nc(N[C@@H]2CN(C3COC3)CC2(F)F)nn2ccc(-c3ccc4nnn(CC(F)F)c4n3)c12 [Compound 1028, (R)—N^2-(4,4-Difluoro-1-(oxetan-3-yl)pyrrolidin-3-yl)-5-(3-(2,2-difluoroethyl)-3H-[1,2,3]triazolo[4,5-b]pyridin-5-yl)-N^4-methylpyrrolo[2,1-f][1,2,4]triazine-2,4-diamine]
